Results: article PMC4161390, “Design and Synthesis of a Cell-Permeable, Drug-Like Small Molecule Inhibitor Targeting the Polo-Box Domain of Polo-Like Kinase 1” (PLoS ONE, 2014)

Molecular target: T1, Polo-like kinase 1 polo-box domain (Plk1-PBD) (Homo sapiens, UniProt P53350)
T1 construct: HA-EGFP-Plk1 in mitotic 293A lysates
Test: ELISA-based Plk1 PBD competition assay (moderate activity)
Assay type: biochemical

T1 sequence (P53350 whole entry, the tested form may be a part): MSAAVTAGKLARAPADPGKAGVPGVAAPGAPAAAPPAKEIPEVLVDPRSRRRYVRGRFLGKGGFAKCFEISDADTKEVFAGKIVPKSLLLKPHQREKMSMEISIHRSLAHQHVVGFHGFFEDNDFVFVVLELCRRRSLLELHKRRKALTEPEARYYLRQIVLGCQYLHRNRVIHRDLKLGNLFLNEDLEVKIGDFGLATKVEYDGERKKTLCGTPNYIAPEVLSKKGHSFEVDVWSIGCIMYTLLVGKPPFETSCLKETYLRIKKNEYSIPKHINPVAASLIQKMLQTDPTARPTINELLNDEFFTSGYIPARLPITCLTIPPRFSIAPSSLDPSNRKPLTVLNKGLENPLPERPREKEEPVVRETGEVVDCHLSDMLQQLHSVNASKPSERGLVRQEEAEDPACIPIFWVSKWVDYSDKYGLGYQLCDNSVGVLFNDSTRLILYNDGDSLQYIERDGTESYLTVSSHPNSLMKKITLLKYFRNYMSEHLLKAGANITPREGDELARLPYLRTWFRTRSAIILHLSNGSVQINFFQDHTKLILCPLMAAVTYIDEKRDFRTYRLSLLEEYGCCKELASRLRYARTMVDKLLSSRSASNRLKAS

With `O=c1c(O)cccc2cc(O)c(O)c(O)c12` [PPG, purpurogallin] as the compound, how does the “ELISA-based Plk1 PBD competition assay (moderate activity)” value read?
Its value is “PPG PLS5 Bg-5 Bg-6|moderate weak weak weak|”.
